Results published in US20260297105A1, “RAF-MEK PROTEIN COMPLEX MODULATORS AND METHODS OF USE THEREOF” (GANDEEVA THERAPEUTICS, INC., priority 2023, published 2026).

Columns and labels:
NCI-H292 cells = test: Cell viability assay (CellTiter-Glo), NCI-H292; type: cell-based; settings: Homo sapiens, 72 hrs, read-out: Cell Viability Assay: IC50 Determination NCI-H292
Procedure: Cell culture: HCTI 16, HT-29, and NCI-H292 cells were acquired from American Type Culture Collection (ATCC). HCT116 and HT-29 cells were maintained in ATCC-formulated McCoy's 5a Medium Modified supplemented with 10% fetal bovine serum, NCI-H292 cells were cultured in ATCC formulated RPMI-1640 supplemented with 10% fetal bovine serum. All cells were maintained at 37° C., 5% CO2.
Efficacy of exemplary compounds in inhibition of cell viability: HCT116 and HT-29 cells were plated at 4,000 cells per well and NCI-H292 cells were plated at 2,000 cells per well in their respective media in 384-well white, TC-treated plates (Corning). After 24 hours of incubation, the cells were treated with vehicle (DMSO) or test compounds (0.1% DMSO in final volume) for 72 hrs. The plate was equilibrated at room temperature for 10 mins followed by addition of a 1:1 volume of CellTiter-Glo® reagent (Promega). The contents were mixed for 2 mins on an orbital shaker to induce lysis. The plate was incubated at room temperature for 10 mins to stabilize luminescent signal before measuring luminescence on a Cytation5 microplate reader (Agilent). % inhibition as a function of compound concentration from 3 replicate wells was fit with a 4-parameter logistic curve using GraphPad Prism or CDD Vault to derive IC50 values.
In this table, for the BRAF ADP Glo kinase assay, “A” indicates IC50 of less than 5 nM; “B” indicates IC50 of between 5 nM to 50 nM; and “C” indicates IC50 of between 50 nM to 500 nM. “D” indicates IC50 of greater than 500 nM. For the BRAF-MEK TR-FRET assay, “A” indicates EC50 of less than 50 nM; “B” indicates EC50 of between 50 nM to 200 nM; and “C” indicates EC50 of between 200 nM to 1 μM. “D′” indicates EC50 of greater than 1 μM. For the AlphaLisa P-ERK assay, “A” indicates IC50 of less than 1 nM; “B” indicates IC50 of between 1 nM to 10 nM; and “C” indicates IC50 of between 10 nM to 100 nM. “D” indicates IC50 of greater than 100 nM. For the cell viability assay, “A” indicates IC50 of less than 1 nM; “B” indicates IC50 of between 1 nM to 10 nM; and “C” indicates IC50 of between 10 nM to 100 nM. “D” indicates IC50 of greater than 100 nM.

MEK1 = biological target: T1, MEK1 (Homo sapiens, UniProt Q02750); test: MEK1 kinase cascade assay (ADP-Glo), inhibition of MEK1 kinase activity; type: biochemical; settings: 25 nM BRAF, 6.25 nM MEK1, 0.5 μM ERK, 1 mM ATP; 20 min preincubation, 1 hr at 25° C.; read-out: BRAF ADP Glo kinase assay V3 (IC50)
T1 construct: purchased SignalChem M02-14H
T1 sequence (Q02750 whole entry): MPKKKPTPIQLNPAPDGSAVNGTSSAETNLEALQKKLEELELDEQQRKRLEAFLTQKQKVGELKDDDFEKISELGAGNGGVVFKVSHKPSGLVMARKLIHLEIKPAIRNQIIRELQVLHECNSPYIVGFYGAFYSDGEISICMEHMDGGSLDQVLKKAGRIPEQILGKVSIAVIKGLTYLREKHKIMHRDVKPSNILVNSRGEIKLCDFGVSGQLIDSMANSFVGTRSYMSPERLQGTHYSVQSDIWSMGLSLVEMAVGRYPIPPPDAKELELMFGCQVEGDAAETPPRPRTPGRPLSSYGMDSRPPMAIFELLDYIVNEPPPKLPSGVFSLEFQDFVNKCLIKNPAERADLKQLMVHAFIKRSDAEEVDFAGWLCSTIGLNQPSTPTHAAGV
T1 sequence (P15056 445-723 partner limits assumed): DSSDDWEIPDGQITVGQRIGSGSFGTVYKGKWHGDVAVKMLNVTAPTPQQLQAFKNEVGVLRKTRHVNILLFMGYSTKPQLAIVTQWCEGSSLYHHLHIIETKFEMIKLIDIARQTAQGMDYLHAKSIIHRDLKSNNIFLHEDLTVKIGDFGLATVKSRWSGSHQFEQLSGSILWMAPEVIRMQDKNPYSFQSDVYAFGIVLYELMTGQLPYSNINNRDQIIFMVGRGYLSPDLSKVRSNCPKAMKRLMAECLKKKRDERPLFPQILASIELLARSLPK
Summary of the method: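 Cascade format with ADP-Glo read-out: BRAF (25 nM) and compound, 1% DMSO, 20 mins at 25° C, then MEK1 6.25 nM, ERK1 0.5 μM, ATP 1 mM for 1 hr at 25° C in HEPES pH 7.5 buffer with MgCl2, CHAPS and DTT. Percent inhibition, scaled between DMSO and 1 μM Trametinib, was fit by 4-parameter logistic to give IC50 (2 replicate wells).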

BRAF-MEK1 = test: BRAF-MEK TR-FRET assay, stabilization of MEK1 and BRAF interaction; type: binding; settings: 4 nM BRAF, 10 nM MEK, 100 μM ATP; 1 hr at 25° C.; read-out: BRAF-MEK TR-FRET Assay (EC50, fold stabilization)
Summary of the method: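 Read-out is fold stabilization (treated FRET ratio/DMSO, Em 665/620 nm), fit 4-parameter for EC50 from 2 replicates. Compounds sat with 4 nM GST-BRAF and 10 nM in-house His-MEK1 1 h at 25° C (Tris pH 7.5, MgCl2, 100 μM ATP), then detection antibodies 1 h.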

SMILES	IC50 (NCI-H292 cells) [nM]	IC50 (MEK1) [nM]	EC50 (BRAF-MEK1) [nM]
CNS(=O)(=O)Nc1cccc(CN2C(=O)Oc3cc(Oc4cccnn4)ccc3C2(C)C)c1F [Compound 51, 3-({2-fluoro-3-[(methylsulfamoyl)amino]phenyl}methyl)-4,4-dimethyl-7-(pyridazine-3-yloxy)-3,4-dihydro-2H-1,3-benzoxazin-2-one]	10 to 100	5 to 50	200 to 1000
CNS(=O)(=O)Nc1cccc(CN2Cc3ccc(Oc4ncccn4)c(F)c3OC2=O)c1F [Compound 123, 8-fluoro-3-{[2-fluoro-3-(methylaminosulfonylamino)phenyl]methyl}-7-(2-pyrimidinyloxy)-3,4-dihydro-2H-1,3-benzoxazin-2-one]	10 to 100	5 to 50	200 to 1000
C[C@@H]1c2ccc(Oc3cccnn3)c(F)c2OC(=O)N1Cc1cccc(NS(=O)(=O)N(C)C)c1F (single isomer, unassigned) [Compound 43]	1 to 10	< 5	< 50
CNS(=O)(=O)Nc1cccc(CN2C(=O)Oc3cc(OC(=O)N(C)C)c(Cl)cc3[C@@H]2C)c1F [Compound 108, (S)-6-chloro-7-(dimethylaminocarbonyloxy)-3-{[2-fluoro-3-(methylaminosulfonylamino)phenyl]methyl}-4-methyl-3,4-dihydro-2H-1,3-benzoxazin-2-one]	< 1	5 to 50	50 to 200
CNS(=O)(=O)Nc1cccc(CN2C(=O)Oc3cc(Oc4cccnn4)cc(F)c3[C@@H]2C)c1F (single isomer, unassigned) [Compound 56]	10 to 100	5 to 50	200 to 1000
CNS(=O)(=O)Nc1cccc(CN2C(=O)Oc3cc(Oc4ncco4)ccc3[C@@H]2C)c1F (single isomer, unassigned) [Compound 78, (S)-3-({2-fluoro-3-(methylsulfamoyl)amino]phenyl}methyl)-4-methyl-7-(1,3-oxazol-2-yloxy)-3,4-dihydro-2H-1,3-benzoxazin-2-one or (R)-3-({2-fluoro-3-(methylsulfamoyl)amino]phenyl}methyl)-4-methyl-7-(1,3-oxazol-2-yloxy)-3,4-dihydro-2H-1,3-benzoxazin-2-one]	10 to 100	5 to 50	200 to 1000
CN(C)C(=O)Oc1cc(F)c2c(c1)OC(=O)N(Cc1cccc(NS(=O)(=O)C3CC3)c1F)C2 [Compound 102, 3-(3-(cyclopropanesulfonamido)-2-fluorobenzyl)-5-fluoro-2-oxo-3,4-dihydro-2H-benzo[e][1,3]oxazin-7-yl dimethylcarbamate]	1 to 10	5 to 50	50 to 200
O=C1Oc2cc(Oc3ncco3)ccc2C2(CCC2)N1Cc1ccnc(NS(=O)(=O)C2CC2)c1F [Compound 167, (cyclopropylsulfonyl)[3-fluoro-4-({7-(1,3-oxazol-2-yloxy)-2-oxo-2H,3H-spiro[1,3-benzoxazine-4,1′-cyclobutan]-3-yl}methyl)-2-pyridyl]amine]	10 to 100	5 to 50	50 to 200
O=C1Oc2cc(Oc3ncco3)c(F)cc2C2(CCC2)N1Cc1ccnc(NS(=O)(=O)C2CC2)c1F [Compound 170, (cyclopropylsulfonyl)[3-fluoro-4-({6-fluoro-7-(1,3-oxazol-2-yloxy)-2-oxo-2H,3H-spiro[1,3-benzoxazine-4,1′-cyclobutan]-3-yl}methyl)-2-pyridyl]amine]	10 to 100	5 to 50	200 to 1000
CNS(=O)(=O)Nc1cccc(CN2C(=O)Oc3cc(OC(=O)N(C)C)ccc3C23CCC3)c1F [Compound 38, 3-({2-fluoro-3-[(methylsulfamoyl)amino]phenyl}methyl)-2-oxo-2,3-dihydrospiro[1,3-benzoxazine-4,1′-cyclobutan]-7-yl N,N-dimethylcarbamate]	< 1	< 5	< 50
CN(C)C(=O)Oc1ccc2c(c1)OC(=O)N(Cc1cccc(NS(=O)(=O)N3CCC(F)C3)c1F)C2 (stereo not shown) [Compound 113, 3-(2-fluoro-3-((3-fluoropyrrolidine)-1-sulfonamido)benzyl)-2-oxo-3,4-dihydro-2H-benzo[e][1,3]oxazin-7-yl dimethylcarbamate]	1 to 10	5 to 50	200 to 1000
CNS(=O)(=O)Nc1nccc(CN2C(=O)Oc3cc(Oc4nccnn4)c(F)cc3C23CCC3)c1F [Compound 166, 6-fluoro-3-{[3-fluoro-2-(methylaminosulfonylamino)-4-pyridyl]methyl}-7-(1,2,4-triazin-3-yloxy)-2H,3H-spiro[1,3-benzoxazine-4,1′-cyclobutan]-2-one]	1 to 10	5 to 50	< 50
CNS(=O)(=O)Nc1cccc(CN2C(=O)Oc3c(ccc(OC(=O)N(C)C)c3F)C23COC3)c1F [Compound 77, 8-fluoro-3-({2-fluoro-3-(methylsulfamoyl)amino]phenyl}methyl)-2-oxo-2,3-dihydrospiro[1,3-benzoxazine-4,3′-oxetan]-7-yl N,N-dimethyl carbamate]	< 1	5 to 50	50 to 200
CNS(=O)(=O)Nc1cccc(CN2C(=O)Oc3cc(Oc4ncco4)ccc3[C@H]2C)c1F (single isomer, unassigned) [Compound 79, (R)-3-({2-fluoro-3-(methylsulfamoyl)amino]phenyl}methyl)-4-methyl-7-(1,3-oxazol-2-yloxy)-3,4-dihydro-2H-1,3-benzoxazin-2-one or (S)-3-({2-fluoro-3-(methylsulfamoyl)amino]phenyl}methyl)-4-methyl-7-(1,3-oxazol-2-yloxy)-3,4-dihydro-2H-1,3-benzoxazin-2-one]	10 to 100	5 to 50	–
CNS(=O)(=O)Nc1nccc(CN2C(=O)Oc3cc(Oc4ncco4)cc(F)c3C23CCC3)c1F [Compound 169, 5-fluoro-3-{[3-fluoro-2-(methylaminosulfonylamino)-4-pyridyl]methyl}-7-(1,3-oxazol-2-yloxy)-2H,3H-spiro[1,3-benzoxazine-4,1′-cyclobutan]-2-one]	1 to 10	5 to 50	< 50
[2H]C1([2H])c2ccc(Oc3cccnn3)cc2OC(=O)N1Cc1cccc(NS(=O)(=O)N(C)C)c1F [Compound 39, 3-{[3-(dimethylaminosulfonylamino)-2-fluorophenyl]methyl}-7-(3-pyridazinyloxy)(4,4-^2H2)-3,4-dihydro-2H-1,3-benzoxazin-2-one]	1 to 10	5 to 50	< 50
CNS(=O)(=O)Nc1cccc(CN2C(=O)Oc3cc(Oc4ncco4)c(F)cc3C23COC3)c1F [Compound 73]	1 to 10	5 to 50	–
CNS(=O)(=O)Nc1cccc(CN2C(=O)Oc3c(ccc(OC(=O)N(C)C)c3F)[C@@H]2C)c1F (single isomer, unassigned) [Compound 103, (S)-8-fluoro-3-(2-fluoro-3-((N-methylsulfamoyl)amino)benzyl)-4-methyl-2-oxo-3,4-dihydro-2H-benzo[e][1,3]oxazin-7-yl dimethylcarbamate or (R)-8-fluoro-3-(2-fluoro-3-((N-methylsulfamoyl)amino)benzyl)-4-methyl-2-oxo-3,4-dihydro-2H-benzo[e][1,3]oxazin-7-yl dimethylcarbamate]	1 to 10	5 to 50	200 to 1000
